Patent publication US20230126310A1 (priority 2020, published 2023)
Where a name gives a salt, the structure may show the parent alone. Read-outs that look alike come from different tables or passages of the source.

Key:
[1] = Compound cytotoxicity against CaCo-2 cells at 48 hours; assay type: cell-based, Human; details: human, Table 5, further results of Examples 1 and 2, mean ± spread
Procedure: The cytotoxicity of the profiled compounds towards CaCo-2 cells at 48 hours was assessed. […] After 48 hours, cytotoxicity was evaluated using both digital phase contrast readout as described above and ATP determination (Cell titre-glo, Promega Corp).

[2] = tested on: SARS-CoV-2; experiment: microbe, parasite or virus in culture; details: for inhibition at 10 µM: read-out: % Inh. (% Inhibition of SARS-CoV-2)
[3] = tested on: SARS-CoV-2; details: for % Inh. (% Inhibition of SARS-CoV-2): 10 µM
[4] = Severe acute respiratory syndrome coronavirus 2, Caco-2, 48 h
[5] = Severe acute respiratory syndrome coronavirus 2, Caco-2, 48 h, read-out: pIC50 (converted)

FC(F)(F)c1ccc(CNc2ccc(Cc3c[nH]c4ncc(Cl)cc34)cn2)cn1 [Pexidartinib]
CC50 at 48 h ([1]; CaCo-2 cells): 41.5 ± 32.5 µM
IC50 [2, 4]: 5.92 µM
IC50 [2, 5]: 5.89 µM

Cn1c(C#N)ccc1-c1ccc2c(c1)C(C)(C)OC(=S)N2 [Tanaproget]
IC50 [3]: 1.13 µM
IC50 [2, 4]: > 1 µM
inhibition at 10 µM [2, 4]: 96.2%
IC50 [2, 5]: 1.12 µM

Fc1ccc(-c2cncc(CN3CCN(c4cccc5c4OCCO5)CC3)c2)cc1 [Adoprazine]
CC50 at 48 h ([1]; CaCo-2 cells): 75.9 ± 54.2 µM
IC50 [2, 4]: 23.4 µM
inhibition at 10 µM [2, 4]: 81.4%
IC50 [2, 5]: 23.4 µM

CC(=O)N1CCN(c2ccc(OCC3COC(Cn4ccnc4)(c4ccc(Cl)cc4Cl)O3)cc2)CC1 (stereo not drawn) [KETOCONAZOLE]
CC50 at 48 h ([1]; CaCo-2 cells): 28.6 ± 4.97 µM
inhibition at 10 µM [2, 4]: 87.1%

CCOc1ccc(Cc2nccc3cc(OCC)c(OCC)cc23)cc1OCC [ETHAVERINE HYDROCHLORIDE]
CC50 at 48 h ([1]; CaCo-2 cells): 11 ± 1.07 µM
IC50 [2, 4]: 0.54 µM
inhibition at 10 µM [2, 4]: 85%
IC50 [2, 5]: 0.537 µM

CN1CC[C@H](c2c(O)cc(O)c3c(=O)cc(-c4ccccc4Cl)oc23)[C@H](O)C1 [alvocidib]
CC50 at 48 h ([1]; CaCo-2 cells): 0.06 µM
inhibition at 10 µM [2, 4]: 87.8%

Cc1cc(C)c(Nc2ccnc(Nc3ccc(C#N)cc3)n2)c(C)c1 [Dapivirine (TMC120), Dapivirine]
CC50 at 48 h ([1]; CaCo-2 cells): 5 ± 0.07 µM
inhibition at 10 µM [2, 4]: 108%

Clc1ccc(Nc2nnc(Cc3ccncc3)c3ccccc23)cc1 [vatalanib]
CC50 at 48 h ([1]; CaCo-2 cells): 64.2 ± 57.4 µM
IC50 [2, 4]: 24.4 µM
inhibition at 10 µM [2, 4]: 85.9%
IC50 [2, 5]: 24.5 µM

Cc1c(C(=O)Nc2ccc(N3C[C@@H](C)O[C@@H](C)C3)nc2)cccc1-c1ccc(OC(F)(F)F)cc1 [LDE225 (NVP-LDE225, Erismodegib), Erismodegib]
CC50 at 48 h ([1]; CaCo-2 cells): 2.26 ± 1.28 µM
IC50 [2, 4]: 7.03 µM
inhibition at 10 µM [2, 4]: 93.5%
IC50 [2, 5]: 7.08 µM

CC(C)(C)Cn1c(N)nc2ccc(-c3[nH]c(C(C)(C)C)nc3-c3ccc(F)cc3)nc21 [LY2228820, Ralimetinib]
CC50 at 48 h ([1]; CaCo-2 cells): 56.2 ± 9.79 µM
inhibition at 10 µM [2, 4]: 112%

COC(=O)C[C@](O)(CCC(C)(C)O)C(=O)O[C@@H]1C(OC)=C[C@]23CCCN2CCc2cc4c(cc2[C@H]13)OCO4 [Harringtonine]
CC50 at 48 h [1]: 0.07 ± 0.06 µM
IC50 [2, 4]: 23.7 µM
inhibition at 10 µM [2, 4]: 93.6%
IC50 [2, 5]: 23.4 µM
IC50 ([2]; Severe acute respiratory syndrome coronavirus 2, Caco-2, read-out: IC50: concentration of 50% inhibition of virus infection, Table 5, further results of Examples 1 and 2, […]): 19 µM
IC50 ([2]; Severe acute respiratory syndrome coronavirus 2, Caco-2, read-out: pIC50: -log10 of IC50, Table 5, further results of Examples 1 and 2 (converted)): 19.1 µM

O=c1ccc2ccc(OCCCCN3CCN(c4cccc5sccc45)CC3)cc2[nH]1 [Brexpiprazole]
CC50 at 48 h ([1]; CaCo-2 cells): 50.6 ± 68.7 µM
IC50 [2, 4]: 22.9 µM
inhibition at 10 µM [2, 4]: 84.8%
IC50 [2, 5]: 22.9 µM

NC(=O)N1CCC(CC(=O)N2CCC([C@H]3c4ncc(Br)cc4CCc4cc(Cl)cc(Br)c43)CC2)CC1 [Lonafarnib (SCH66336), Lonafarnib]
CC50 at 48 h ([1]; CaCo-2 cells): 10.7 ± 7.39 µM

CC(=O)O[C@H]1C[C@H](O[C@H]2[C@@H](O)C[C@H](O[C@H]3[C@@H](O)C[C@H](O[C@H]4CC[C@@]5(C)[C@H](CC[C@@H]6[C@@H]5C[C@@H](O)[C@]5(C)[C@@H](C7=CC(=O)OC7)CC[C@]65O)C4)O[C@@H]3C)O[C@@H]2C)O[C@H](C)[C@H]1O[C@@H]1O[C@H](CO)[C@@H](O)[C@H](O)[C@H]1O [LANATOSIDE C]
% Inh. (% Inhibition of SARS-CoV-2) [3]: 63.7%

Cc1[nH]nc2ccc(-c3cncc(OC[C@@H](N)Cc4ccccc4)c3)cc12 [A-674563]
% Inh. (% Inhibition of SARS-CoV-2) [3]: 53.3%

C[C@]12CC[C@H]3[C@@H](CC[C@]4(O)C[C@@H](O)CC[C@]34C=O)[C@@]1(O)CC[C@@H]2C1=CC(=O)OC1 [Strophantidin]
% Inh. (% Inhibition of SARS-CoV-2) [3]: 67.1%

NCC(=O)Nc1ccc(-n2nc(C(F)(F)F)cc2-c2ccc3c(ccc4ccccc43)c2)cc1 [AR-12]
% Inh. (% Inhibition of SARS-CoV-2) [3]: 85.7%

CCCCCCCCc1ccc(-c2ccc(C(=O)O)cc2)cc1 [AC-55649]
% Inh. (% Inhibition of SARS-CoV-2) [3]: 63.1%

Nc1cc(C(F)(F)F)c(-c2cc(N3CCOCC3)nc(N3CCOCC3)n2)cn1 [BKM120 (NVP-BKM120)]
% Inh. (% Inhibition of SARS-CoV-2) [3]: 97.6%

Cc1ccc(C(=O)N(CCCN)[C@@H](c2oc3cc(Cl)ccc3c(=O)c2Cc2ccccc2)C(C)C)cc1 [SB-743921]
% Inh. (% Inhibition of SARS-CoV-2) [3]: 78.9%

COc1ccccc1C(=O)Nc1cccc(NC(=O)c2cccc(C)c2)c1 [ML-365]
% Inh. (% Inhibition of SARS-CoV-2) [3]: 92.7%

COc1cc2ncnc(Nc3cccc(Cl)c3)c2cc1OC [AG-1478 (Tyrphostin AG-1478), Tyrphostin AG-1478]
% Inh. (% Inhibition of SARS-CoV-2) [3]: 73.9%

MONENSIN SODIUM
% Inh (% inhibition of virus infection) ([3]; comparative experiments, Examples 1 and 2): 103.2%

Chlorophyllin (sodium copper salt)
% Inh. (% Inhibition of SARS-CoV-2) [3]: 66.7%

O=S(=O)(c1cccc2c(Cl)cccc12)N1CCCNCC1 [ML-9]
% Inh. (% Inhibition of SARS-CoV-2) [3]: 91.9%

COc1cc2c(cc1OC)CN(C(=O)[C@@H](NCc1ccncc1)C(C)(C)C)CC2 [TCS-OX2-29]
% Inh. (% Inhibition of SARS-CoV-2) [3]: 52.7%

CC(C)C(C(=O)Nc1nccs1)c1ccc(Cl)cc1 (stereo not drawn) [4-CMTB]
% Inh. (% Inhibition of SARS-CoV-2) [3]: 87.1%

COc1ccc(CNC(=O)Nc2ncc([N+](=O)[O-])s2)cc1 [AR-A014418]
% Inh. (% Inhibition of SARS-CoV-2) [3]: 82.3%

Cc1ccc(NC(=O)C(C)C)cc1C1CCN(Cc2ccc(Oc3ccc(F)c(F)c3)cc2)CC1 [SNAP-94847]
% Inh. (% Inhibition of SARS-CoV-2) [3]: 91.4%

CC(C)(Cc1c[nH]c2ccc(Cl)cc12)NCCOc1ccccc1OCC1CC1 [RS-17053]
% Inh. (% Inhibition of SARS-CoV-2) [3]: 103.3%

CSc1nc(-c2ccnc(NC(C)c3ccccc3)c2)c(-c2ccc(F)cc2)[nH]1 (stereo not drawn) [ML-3403]
% Inh. (% Inhibition of SARS-CoV-2) [3]: 50.3%

CC(C)c1ccc2c(c1)CC[C@H]1[C@](C)(CN)CCC[C@]21C [lylamine]
% Inh. (% Inhibition of SARS-CoV-2) [3]: 76.4%

CNC(=O)Nc1ccc(-c2nc(N3CC4CCC(C3)O4)c3cnn(C4CCC5(CC4)OCCO5)c3n2)cc1 [WYE-125132]
% Inh. (% Inhibition of SARS-CoV-2) [3]: 99.7%

Fc1ccc(CNc2ncnc3ccc(F)cc23)cc1 [spautin-1]
% Inh. (% Inhibition of SARS-CoV-2) [3]: 92.1%

CC(C)(N)c1cc(C(=O)N[C@@H]2CCc3ccc(Oc4ccnc5c4CCC(=O)N5)cc3C2)cc(C(F)(F)F)c1 [ML-786]
% Inh. (% Inhibition of SARS-CoV-2) [3]: 105.5%

O=c1oc(-c2ccc(C(F)(F)F)cc2)nn1Cc1cc(Cl)ccc1O [BMS-191011]
% Inh. (% Inhibition of SARS-CoV-2) [3]: 52.3%

Cc1ccc2cc(-c3c(C)ccc(C(=O)c4c(-c5ccccc5)n(C)n(-c5ccccc5)c4=O)c3N)ccc2n1 [AMG-PERK-44]
% Inh. (% Inhibition of SARS-CoV-2) [3]: 127.9%

COc1ccc(C(=O)N2CCCc3cc(C4=NNC(=O)SC4C)ccc32)cc1OC (stereo not drawn) [EMD-53998]
% Inh. (% Inhibition of SARS-CoV-2) [3]: 79.6%

CCCCCCc1ccc(O)cc1O.Nc1c2ccccc2nc2ccccc12 [ACRISORCIN]
% Inh. (% Inhibition of SARS-CoV-2) [3]: 61.7%

Nc1nccc(Oc2ccc(NC(=O)c3c[nH]cc(-c4ccc(F)cc4)c3=O)cc2F)c1Cl [BMS 794833]
% Inh. (% Inhibition of SARS-CoV-2) [3]: 98.3%

Cc1cc(/C=C2\SC(=O)N(c3ccccc3)C2=O)c(C)n1-c1cccnc1 [iCRT-14]
% Inh. (% Inhibition of SARS-CoV-2) [3]: 82.5%

O=C(Nc1ccc(CN2CCOCC2)cc1)c1ccc(-c2cccc(Cl)c2)o1 [CID-2011756]
% Inh. (% Inhibition of SARS-CoV-2) [3]: 97.0%

CCCCN1C[C@H](O)[C@@H](O)[C@H](O)[C@H]1CO [Miglustat (n-Butyldeoxynojirimycin)]
% Inh. (% Inhibition of SARS-CoV-2) [3]: 64.4%

COC(=O)C1=C(C)NC(C)=C(C(=O)OCCSc2ccccc2)C1C (stereo not drawn) [PCA-4248]
% Inh. (% Inhibition of SARS-CoV-2) [3]: 55.3%

O=C(Nc1ccccc1)N1CCC(Cc2cnc3ccccc3c2)CC1 [PF-750]
% Inh. (% Inhibition of SARS-CoV-2) [3]: 85.2%

N#Cc1cnc2cnc(NCc3cccnc3)cc2c1Nc1ccc(F)c(Cl)c1 [TC-S-7006]
% Inh. (% Inhibition of SARS-CoV-2) [3]: 100.7%

Cc1ccc(-c2csc(NC(=O)c3ccccc3)n2)c(C)c1 [INH1]
% Inh. (% Inhibition of SARS-CoV-2) [3]: 89.8%

CCCCCCN(CCCCCC)C(=O)Cc1c(-c2ccc(F)cc2)[nH]c2ccccc12 [FGIN-1-27]
% Inh. (% Inhibition of SARS-CoV-2) [3]: 73.5%

CNC(=O)c1ccccc1Nc1nc(Nc2ccc(N3CCOCC3)cc2OC)ncc1Cl [NVP-TAE226]
% Inh. (% Inhibition of SARS-CoV-2) [3]: 73.2%

C=C[C@@]1(C)CC(=O)[C@]2(O)[C@@]3(C)[C@@H](O)CCC(C)(C)[C@@H]3[C@H](OC(=O)CCN(C)C)[C@H](OC(C)=O)[C@@]2(C)O1 [colforsin-daproate]
% Inh. (% Inhibition of SARS-CoV-2) [3]: 80.3%

CC(CNS(=O)(=O)C(C)C)c1ccc(-c2ccc(C#N)cc2)cc1 (stereo not drawn) [LY-404187]
% Inh. (% Inhibition of SARS-CoV-2) [3]: 80.4%

COc1ccc(CCN(C)CCCOc2ccc(S(=O)(=O)c3c(C(C)C)c4ccccc4n3C)cc2)cc1OC.O=C(O)C(=O)O [SR-33805 oxalate]
% Inh. (% Inhibition of SARS-CoV-2) [3]: 67.7%
